Experimental data: patent publication US10633342B2, “Inhibitors of indoleamine 2,3-dioxygenase and methods of their use” (BRISTOL-MYERS SQUIBB COMPANY, priority 2016, dated 2020)

The molecules below were run against T1, human IDO1 (Homo sapiens, UniProt P14902) (assay: HEK Human IDO-1 inhibition assay (kynurenine, Ehrlich reagent, absorbance 490 nm)). Conditions: human IDO1/HEK293 cells, 20 hours incubation; read-out: HEK Human IDO-1 Bio Activity (IDO IC50).
T1 construct: expressed in transfected cells
T1 sequence (P14902 whole entry): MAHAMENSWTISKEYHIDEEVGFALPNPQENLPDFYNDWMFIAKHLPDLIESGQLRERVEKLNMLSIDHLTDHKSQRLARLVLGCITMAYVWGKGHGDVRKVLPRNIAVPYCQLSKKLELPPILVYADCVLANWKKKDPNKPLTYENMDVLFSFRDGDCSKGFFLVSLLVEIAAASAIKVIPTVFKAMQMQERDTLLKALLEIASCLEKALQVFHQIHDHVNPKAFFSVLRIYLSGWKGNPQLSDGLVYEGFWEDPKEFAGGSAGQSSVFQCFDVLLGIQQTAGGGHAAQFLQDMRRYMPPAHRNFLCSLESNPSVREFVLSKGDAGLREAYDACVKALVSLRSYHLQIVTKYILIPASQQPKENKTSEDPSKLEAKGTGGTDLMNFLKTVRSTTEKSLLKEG
Format: cell-based
Experimental: HEK293 cells were transfected with a pCDNA-based mammalian expression vector harboring human IDO1 cDNA (NM 002164.2) by electroporation. They were cultured in medium (DMEM with 10% FBS) containing 1 mg/ml G418 for two weeks. Clones of HEK293 cells that stably expressed human IDO1 protein were selected and expanded for IDO inhibition assay.
The human IDO1/HEK293 cells were seeded at 10,000 cells per 50 μL per well with RPMI/phenol red free media contains 10% FBS in a 384-well black wall clear bottom tissue culture plate (Matrix Technologies LLC) 100 nL of certain concentration of compound was then added to each well using ECHO liquid handling systems. The cells were incubated for 20 hours in 37° C. incubator with 5% CO2.
The compound treatments were stopped by adding trichloroacetic acid (Sigma-Aldrich) to a final concentration at 0.2%. The cell plate was further incubated at 50° C. for 30 minute. The equal volume supernatant (20 μL) and 0.2% (w/v) Ehrlich reagent (4-dimethylaminobenzaldehyde, Sigma-Aldrich) in glacial acetic acid were mixed in a new clear bottom 384-well plate. This plate was then incubated at room temperature for 30 minute. The absorbance at 490 nm was measured on Envision plate reader.
Compound IC50 values were calculated using the counts of 500 nM of a reference standard treatment as one hundred percent inhibition, and counts of no compound but DMSO treatment as zero percent inhibition.

IC50	SMILES
< 0.1 µM	Cc1ccc(CC(=O)NCC2CCN(c3ccnc4ccc(F)cc34)CC2)cc1 [Example 1, N-((1-(6-Fluoroquinolin-4-yl)piperidin-4-yl)methyl)-2-(p-tolyl)acetamide]
< 0.1 µM	O=C(Cc1ccc(F)cc1)NCC1CCN(c2ccnc3ccc(F)cc23)CC1 [Example 2, 2-(4-Fluorophenyl)-N-((1-(6-fluoroquinolin-4-yl)piperidin-4-yl)methyl)acetamide]
< 1 µM	O=C(Cc1ccccc1F)NCC1CCN(c2ccnc3ccc(F)cc23)CC1 [Example 3, 2-(2-Fluorophenyl)-N-((1-(6-fluoroquinolin-4-yl)piperidin-4-yl)methyl)acetamide]
< 1 µM	C[C@@H](CNC(=O)c1ccc(Cl)cc1)[C@H]1CC[C@@H](c2ccnc3ccc(F)cc32)CC1 [Example 4, 4-chloro-N—((R)-2-((cis)-4-(6-fluoroquinolin-4-yl)cyclohexyl)propyl)benzamide]
< 1 µM	C[C@@H](NC(=O)Cc1ccc(Cl)cc1)[C@H]1CC[C@@H](c2ccnc3ccc(F)cc32)CC1 [Example 5, 2-(4-chlorophenyl)-N-((R)-1-((1s,4S)-4-(6-fluoroquinolin-4-yl)cyclohexyl)ethyl)acetamide]
< 1 µM	C[C@@H](NC(=O)Cc1ccccc1Cl)[C@H]1CC[C@@H](c2ccnc3ccc(F)cc32)CC1 [Example 6, 2-(2-chlorophenyl)-N-((R)-1-((1s,4S)-4-(6-fluoroquinolin-4-yl)cyclohexyl)ethyl)acetamide]
< 1 µM	C[C@@H](NC(=O)Cc1cccc(Cl)c1)[C@H]1CC[C@@H](c2ccnc3ccc(F)cc32)CC1 [Example 7, 2-(3-chlorophenyl)-N-((R)-1-((1s,4S)-4-(6-fluoroquinolin-4-yl)cyclohexyl)ethyl)acetamide]
< 1 µM	C[C@H](C(=O)N[C@H](C)[C@H]1CC[C@@H](c2ccnc3ccc(F)cc32)CC1)c1ccccc1 [Example 8, (S)-N-((R)-1-((1s,4S)-4-(6-fluoroquinolin-4-yl)cyclohexyl)ethyl)-2-phenylpropanamide]
< 1 µM	C[C@@H](C(=O)N[C@H](C)[C@H]1CC[C@@H](c2ccnc3ccc(F)cc32)CC1)c1ccccc1 [Example 9, (R)-N-((R)-1-((1s,4S)-4-(6-fluoroquinolin-4-yl)cyclohexyl)ethyl)-2-phenylpropanamide]
< 1 µM	COc1ccc(CC(=O)N[C@H](C)[C@H]2CC[C@@H](c3ccnc4ccc(F)cc43)CC2)cc1 [Example 10, N-((R)-1-((1s,4S)-4-(6-fluoroquinolin-4-yl)cyclohexyl)ethyl)-2-(4-methoxyphenyl)acetamide]
< 0.1 µM	CO[C@@H](C(=O)N[C@H](C)[C@H]1CC[C@@H](c2ccnc3ccc(F)cc32)CC1)c1ccccc1 [Example 11]
< 1 µM	C[C@@H](NC(=O)Cc1ccccc1F)[C@H]1CC[C@@H](c2ccnc3ccc(F)cc32)CC1 [Example 12, 2-(2-fluorophenyl)-N-((R)-1-((1s,4S)-4-(6-fluoroquinolin-4-yl)cyclohexyl)ethyl)acetamide]
< 0.1 µM	C[C@@H](NC(=O)C1(c2ccc(Cl)cc2)CCC1)[C@H]1CC[C@@H](c2ccnc3ccc(F)cc32)CC1 [Example 13, 1-(4-chlorophenyl)-N-((R)-1-((1s,4S)-4-(6-fluoroquinolin-4-yl)cyclohexyl)ethyl)-cyclobutanecarboxamide]
< 0.1 µM	C[C@@H](NC(=O)C12CCC(Cl)(CC1)CC2)[C@H]1CC[C@@H](c2ccnc3ccc(F)cc32)CC1 [Example 14, 4-chloro-N—((R)-1-((cis)-4-(6-fluoroquinolin-4-yl)cyclohexyl)ethyl)bicyclo [2.2.2]octane-1-carboxamide]
< 0.1 µM	C[C@@H](NC(=O)C1CCCCC1)[C@H]1CC[C@@H](c2ccnc3ccc(F)cc32)CC1 [Example 15, N-((R)-1-((1s,4S)-4-(6-fluoroquinolin-4-yl)cyclohexyl)ethyl)-cyclohexanecarboxamide]
< 1 µM	C[C@@H](NC(=O)C1CC1)[C@H]1CC[C@@H](c2ccnc3ccc(F)cc32)CC1 [Example 16, N-((R)-1-((1s,4S)-4-(6-fluoroquinolin-4-yl)cyclohexyl)ethyl)-cyclopropanecarboxamide]
< 1 µM	C[C@@H](NC(=O)C1CC(F)(F)C1)[C@H]1CC[C@@H](c2ccnc3ccc(F)cc32)CC1 [Example 17, 3,3-difluoro-N-((R)-1-((1s,4S)-4-(6-fluoroquinolin-4-yl)cyclohexyl)ethyl)-cyclobutanecarboxamide]
< 1 µM	C[C@@H](NC(=O)[C@H]1C[C@H](F)C1)[C@H]1CC[C@@H](c2ccnc3ccc(F)cc32)CC1 [Example 18, (1r,3R)-3-fluoro-N-((R)-1-((1s,4S)-4-(6-fluoroquinolin-4-yl)cyclohexyl)ethyl)-cyclobutanecarboxamide]
< 1 µM	C[C@@H](NC(=O)[C@H]1C[C@@H](F)C1)[C@H]1CC[C@@H](c2ccnc3ccc(F)cc32)CC1 [Example 19, (1s,3S)-3-fluoro-N-((R)-1-((1s,4S)-4-(6-fluoroquinolin-4-yl)cyclohexyl)ethyl)-cyclobutanecarboxamide]
< 1 µM	C[C@@H](NC(=O)C1CCC1)[C@H]1CC[C@@H](c2ccnc3ccc(F)cc32)CC1 [Example 20, N-((R)-1-((1s,4S)-4-(6-fluoroquinolin-4-yl)cyclohexyl)ethyl)-cyclobutanecarboxamide]
< 1 µM	C[C@@H](NC(=O)[C@H]1CC[C@@H](O)CC1)[C@H]1CC[C@@H](c2ccnc3ccc(F)cc32)CC1 [Example 21, (1s,4S)-N-((R)-1-((1s,4S)-4-(6-fluoroquinolin-4-yl)cyclohexyl)ethyl)-4-hydroxycxclohexanecarboxamide]
< 1 µM	C[C@@H](NC(=O)[C@H]1CC[C@H](O)CC1)[C@H]1CC[C@@H](c2ccnc3ccc(F)cc32)CC1 [Example 22, (1r,4R)-N-((R)-1-((1s,4S)-4-(6-fluoroquinolin-4-y1)cyclohexyl)ethyl)-4-hydroxycxclohexanecarboxamide]
